Measurements as given in patent US11078228B2, “Ectonucleotidase inhibitors and methods of use thereof” (Calithera Biosciences, Inc., priority 2018, dated 2021).
Read-outs that look alike come from different tables or passages of the source.

Key:
[1] = target: CD73 activity in cancer patient serum (Homo sapiens (Human), UniProt P21589); assay: CD73 activity in cancer patient serum, LC/MS conversion of 15N5-AMP to 15N5-ADO; format: biochemical; settings: TNAP inhibitor present
Procedure: Serum was procured from Discovery Life Sciences. Serum from head and neck squamous cell carcinoma (HNSCC), ovarian cancer, triple-negative breast cancer and esophageal cancer patients were incubated with a serial dilution of Compound 9 in the presence of a TNAP inhibitor. Conversion of ^15N5-AMP to ^15N5-ADO was measured by LC/MS. FIG. 10A depicts the sub-nanomolar inhibition of HNSCC serum. FIG. 10B depicts the sub-nanomolar inhibition of ovarian cancer serum. FIG. 10C depicts the sub-nanomolar inhibition of TNBC serum. FIG. 10D depicts the sub-nanomolar inhibition of esophageal cancer serum.

EG7 cells = assay: EG7 subcutaneous tumor model in C57BL/6 mice, tumor volume; format: in vivo, mouse
Procedure: (§1) EG7 cells were implanted subcutaneously into C57BL/6 mice. Compound 9 (50 mg/kg) or vehicle was orally administered BID starting day one post implant (N=10 per group). Tumors were excised on day 14 and analyzed by flow cytometry. Compound 9 increased the % CD8+ cells of CD45+ cells as shown in FIG. 1A (* indicates p<0.05). EG7 cells were implanted subcutaneously into C57BL/6 mice. Anti-CD8 antibody was dosed i.p. on days −1, 0, 5, and 10. Compound 9 (50 mg/kg) or vehicle was orally dosed BID starting on day 1.
Compounds of the invention show potent anti-tumor effects, evidenced in reducing tumor volume in a mouse model. In one model, EG7 cells were implanted subcutaneously into C57BL/6 mice. Compound 9 or vehicle was orally administered BID starting day one post implant (N=10 per group). […] In another model, EG7 cells were implanted subcutaneously into C57BL/6 mice. Compound 9 was orally administered BID (100 mg/kg) starting day one post implant (N=10 per group). Vehicle was orally administered BID starting day one post implant (N=20) until day five post implant, at which time, mice were randomized by tumor volume into two groups. Compound 9 (100 mg/kg) or vehicle was orally administered BID to N=10 per group starting day six post implant. […] FIGS. 13B-D show individual replications of this measurement for each dosing. FIG. 13B is vehicle. FIG. 13C is dosing of Compound 9 started on day 1. FIG. 13D is Compound 9 started on day 6. In another model, CT26 cells were implanted subcutaneously into Balb/c mice. 100 mg/kg Compound 9 or vehicle was orally administered BID starting day one post implant (N=10 per group).
EG7 cells were implanted subcutaneously into C57BL/6 mice for each experiment. Anti-PD-L1 antibody (5 mg/kg) was dosed i.p. on Study Days 3, 5, 7, 9, 11, 13. Compound 9 (100 mg/kg) or vehicle was orally administered BID starting one day post implant. […] FIGS. 7B-7E show the individual replications of this measurement for each dosing. FIG. 7B is vehicle, FIG. 7C is anti-PD-L1 antibody, FIG. 7D is Compound 9, and FIG. 7E is Compound 9+ Anti-PD-L1.
Oxaliplatin was dosed i.p. 6 mg/kg on Study Days 7 and 14. Compound 9 (100 mg/kg) or vehicle was orally administered BID starting one day post implant. […] FIGS. 8B-8E show the individual replications of this measurement for each dosing. FIG. 8B is vehicle, FIG. 8C is oxaliplatin, FIG. 8D is Compound 9, and FIG. 8E is Compound 9+oxaliplatin.
Doxorubicin was dosed i.v. 2.5 mg/kg on Study Days 7 and 14. Compound 9 (50 mg/kg) or vehicle was orally administered BID starting one day post implant. […] FIGS. 9B-9E show the individual replications of this measurement for each dosing. FIG. 9B is vehicle, FIG. 9C is doxorubicin, FIG. 9D is Compound 9, and FIG. 9E is Compound 9+doxorubicin.
Docetaxel was dosed i.p. 5 mg/kg on Study Days 5, 12, and 19. Compound 9 (100 mg/kg) or vehicle was orally administered BID starting one day post implant. […] show the individual replications of this measurement for each dosing. FIG. 12B is vehicle, FIG. 12C is docetaxel, FIG. 12D is Compound 9, and FIG. 12E is Compound 9+docetaxel.

Human CD8+ T cells = assay: Reversal of AMP-mediated suppression of CD8+ T cells; format: cell-based; settings: T-cell, 96 h, 4 days
Procedure: Human CD8+ T cells were labeled with CellTrace CFSE and then pre-incubated with an adenosine deaminase inhibitor and Compound 9 or vehicle for 20 minutes. 20 μM AMP was added for assessing T cell proliferation and CD25 expression. 10 μM AMP was added for assessing cytokine production. T cells were activated with α-CD3, α-CD28, and hIL2. After 4 days, proliferation and CD25 expression were assessed by flow cytometry and cytokine levels in the supernatant were measured by ELISA. EC50s were determined using a four-parameter dose-response curve equation.

EG7 tumors = assay: Tumor-directed immune response: flow cytometry of excised EG7 tumors; format: in vivo, mouse; settings: 50 mg/kg orally BID from day one, tumors excised day 14
Procedure: as §1

mouse plasma CD73 = mouse plasma CD73 (Mus musculus (Mouse), UniProt Q61503); assay: Inhibition of CD73 in mouse plasma (IC50); format: biochemical
Chain of mouse plasma CD73 (Q61503 29-576): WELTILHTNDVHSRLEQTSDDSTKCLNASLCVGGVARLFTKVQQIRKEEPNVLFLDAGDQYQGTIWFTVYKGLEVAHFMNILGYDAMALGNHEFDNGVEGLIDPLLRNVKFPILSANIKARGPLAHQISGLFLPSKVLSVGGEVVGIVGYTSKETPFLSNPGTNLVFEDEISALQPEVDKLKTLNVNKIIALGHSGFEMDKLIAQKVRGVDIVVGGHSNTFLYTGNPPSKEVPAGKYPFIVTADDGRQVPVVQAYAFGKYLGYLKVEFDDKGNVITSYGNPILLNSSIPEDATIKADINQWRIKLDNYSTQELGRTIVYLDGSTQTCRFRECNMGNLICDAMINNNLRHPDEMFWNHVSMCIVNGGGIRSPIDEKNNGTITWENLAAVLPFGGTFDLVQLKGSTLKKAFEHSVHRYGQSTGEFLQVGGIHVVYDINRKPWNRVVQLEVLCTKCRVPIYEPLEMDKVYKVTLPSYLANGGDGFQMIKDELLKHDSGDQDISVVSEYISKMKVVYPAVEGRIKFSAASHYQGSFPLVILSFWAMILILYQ
Procedure: The potency of Compound 9 was evaluated against recombinant CD73 and CD73-expressing SK-MEL-28 cells using a malachite green assay. Inhibition of CD73 in plasma was measured using LC/MS to assess conversion of ^15N5-AMP into ^15N5-ADO. FIG. 4A indicates the nanomolar inhibition of CD73 cells from both human and mouse sources. […] Inhibition of CD73 in plasma was measured using LC/MS to assess conversion of ^15N5-AMP into ^15N5-ADO.
Single dose Compound 9 (50 mg/kg) was administered orally to mice and plasma was collected at indicated time points. Compound 9 levels were measured by LC/MS. Plasma was harvested from mice 2 hours post dose and spiked with ^15N5-AMP and a TNAP inhibitor. ^15N5-ADO levels were measured by LC/MS.

recombinant human ENTPD3 = recombinant human ENTPD3 (Homo sapiens (Human), UniProt O75355); assay: Recombinant human ENTPD3 malachite green assay; format: biochemical
Chain of recombinant human ENTPD3 (O75355 whole entry): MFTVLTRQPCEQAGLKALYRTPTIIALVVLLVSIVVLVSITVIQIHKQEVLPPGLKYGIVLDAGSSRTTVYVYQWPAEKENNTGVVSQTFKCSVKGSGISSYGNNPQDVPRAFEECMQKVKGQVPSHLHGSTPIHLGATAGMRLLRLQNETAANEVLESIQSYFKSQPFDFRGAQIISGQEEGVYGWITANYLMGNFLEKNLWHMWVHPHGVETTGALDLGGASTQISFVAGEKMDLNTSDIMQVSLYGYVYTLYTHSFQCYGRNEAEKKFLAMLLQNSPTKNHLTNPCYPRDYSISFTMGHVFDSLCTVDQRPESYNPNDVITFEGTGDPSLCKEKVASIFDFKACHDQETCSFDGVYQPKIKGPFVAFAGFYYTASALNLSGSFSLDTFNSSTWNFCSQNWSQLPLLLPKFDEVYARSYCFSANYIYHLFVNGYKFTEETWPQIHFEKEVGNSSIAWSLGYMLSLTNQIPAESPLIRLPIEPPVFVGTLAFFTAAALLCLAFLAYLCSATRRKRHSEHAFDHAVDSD
Procedure: Using Compound 9, the activity of cell surface CD39 was assessed using K562 cells expressing human CD39 and Kinase-Glo. Activity of recombinant human ENTPD2 and ENTPD3 was assessed using a malachite green assay. […] Compound 9 was screened in the Eurofins Safety Screen Panel and the Eurofins Express Diversity Kinase Profile Panel. In the Safety Panel, 1/87 targets were inhibited at >50% at 10 μM of Compound 9. The PDE3 enzyme was inhibited at 59%.

Chain of CD73 activity in cancer patient serum (P21589 27-574): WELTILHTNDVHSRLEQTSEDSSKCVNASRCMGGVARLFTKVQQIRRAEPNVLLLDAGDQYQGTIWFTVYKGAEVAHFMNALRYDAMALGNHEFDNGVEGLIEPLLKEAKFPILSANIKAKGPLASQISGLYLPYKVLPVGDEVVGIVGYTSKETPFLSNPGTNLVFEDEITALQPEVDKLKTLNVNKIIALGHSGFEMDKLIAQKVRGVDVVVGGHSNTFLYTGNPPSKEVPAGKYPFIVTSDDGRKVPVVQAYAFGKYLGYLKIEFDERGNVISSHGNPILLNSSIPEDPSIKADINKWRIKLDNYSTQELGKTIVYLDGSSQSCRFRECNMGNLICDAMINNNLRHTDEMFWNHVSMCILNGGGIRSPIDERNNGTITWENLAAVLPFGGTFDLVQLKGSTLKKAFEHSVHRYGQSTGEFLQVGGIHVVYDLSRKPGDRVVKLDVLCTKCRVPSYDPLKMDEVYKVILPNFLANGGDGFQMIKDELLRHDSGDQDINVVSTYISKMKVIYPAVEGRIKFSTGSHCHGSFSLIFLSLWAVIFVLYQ

Compound: C#C[C@@]1(O)[C@@H](COC(Cc2ccc(N3CCCNC3=O)cc2)(C(=O)O)C(=O)O)O[C@@H](n2cnc3c(N)nc(Cl)nc32)[C@@H]1O [Compound 9, 2-(((2R,3S,4R,5R)-5-(6-amino-2-chloro-9H-purin-9-yl)-3-ethynyl-3,4-dihydroxytetrahydrofuran-2-yl)methoxy)-2-(4-(2-oxotetrahydropyrimidin-1 (2H)-yl)benzyl)malonic acid]
- inhibition of CD73 activity in esophageal cancer serum ([1]; esophageal cancer serum): sub-nanomolar
- inhibition of CD73 activity in HNSCC serum ([1]; head and neck squamous cell carcinoma serum): sub-nanomolar
- inhibition of CD73 activity in ovarian cancer serum ([1]; ovarian cancer serum): sub-nanomolar
- inhibition of CD73 activity in TNBC serum ([1]; triple-negative breast cancer serum): sub-nanomolar
- tumor volume reduction, with or without CD8+ T cell depletion (EG7 cells; 50 mg/kg orally BID from day 1, anti-CD8 antibody i.p. days -1, 0, 5, 10): more of a tumor volume reduction
- tumor volume, established EG7 tumors (EG7 cells; 100 mg/kg orally BID starting day six post implant): decrease in tumor volume
- tumor volume, EG7, single agent and combination with doxorubicin (EG7 cells; Compound 9 50 mg/kg orally BID, doxorubicin i.v. 2.5 mg/kg days 7 and 14): reduction in tumor volume
- tumor volume, EG7, single agent and combination with anti-PD-L1 antibody (EG7 cells; Compound 9 100 mg/kg orally BID, anti-PD-L1 5 mg/kg i.p. days 3, 5, 7, 9, 11, 13): reduction in tumor volume
- tumor volume, EG7, single agent and combination with docetaxel (EG7 cells; Compound 9 100 mg/kg orally BID, docetaxel i.p. 5 mg/kg days 5, 12, 19): reduction in tumor volume
- tumor volume, EG7, single agent and combination with oxaliplatin (EG7 cells; Compound 9 100 mg/kg orally BID, oxaliplatin i.p. 6 mg/kg days 7 and 14): reduction in tumor volume
- tumor volume, EG7, dose response (EG7 cells; orally BID from day one post implant, increasing doses): further decrease in tumor volume with increasing doses
- EC50 (Human CD8+ T cells; 10 μM AMP, ELISA, read-out: EC50 for Granzyme B production): 5.6 nM
- EC50 (Human CD8+ T cells; 10 μM AMP, ELISA, read-out: EC50 for IFNγ production): 4.5 nM
- EC50 (Human CD8+ T cells; 20 μM AMP, flow cytometry, read-out: EC50 for CD8+ T cell activation (CD25 expression)): 9.6 nM
- EC50 (Human CD8+ T cells; 20 μM AMP, flow cytometry, read-out: EC50 for CD8+ T cell proliferation): 11.6 nM
- % CD8+ cells of CD45+ cells (EG7 tumors): increased
- IC50 (mouse plasma CD73): 1 nM
- IC50 (recombinant human ENTPD3): > 10000 nM
